Read-outs that look alike come from different tables or passages of the source.
Target: T1, recombinant EphB4 kinase (Homo sapiens, UniProt P54760)
T1 construct: purchased ProQinase GmbH, Freiburg, Germany
T1 sequence (P54760 16-987): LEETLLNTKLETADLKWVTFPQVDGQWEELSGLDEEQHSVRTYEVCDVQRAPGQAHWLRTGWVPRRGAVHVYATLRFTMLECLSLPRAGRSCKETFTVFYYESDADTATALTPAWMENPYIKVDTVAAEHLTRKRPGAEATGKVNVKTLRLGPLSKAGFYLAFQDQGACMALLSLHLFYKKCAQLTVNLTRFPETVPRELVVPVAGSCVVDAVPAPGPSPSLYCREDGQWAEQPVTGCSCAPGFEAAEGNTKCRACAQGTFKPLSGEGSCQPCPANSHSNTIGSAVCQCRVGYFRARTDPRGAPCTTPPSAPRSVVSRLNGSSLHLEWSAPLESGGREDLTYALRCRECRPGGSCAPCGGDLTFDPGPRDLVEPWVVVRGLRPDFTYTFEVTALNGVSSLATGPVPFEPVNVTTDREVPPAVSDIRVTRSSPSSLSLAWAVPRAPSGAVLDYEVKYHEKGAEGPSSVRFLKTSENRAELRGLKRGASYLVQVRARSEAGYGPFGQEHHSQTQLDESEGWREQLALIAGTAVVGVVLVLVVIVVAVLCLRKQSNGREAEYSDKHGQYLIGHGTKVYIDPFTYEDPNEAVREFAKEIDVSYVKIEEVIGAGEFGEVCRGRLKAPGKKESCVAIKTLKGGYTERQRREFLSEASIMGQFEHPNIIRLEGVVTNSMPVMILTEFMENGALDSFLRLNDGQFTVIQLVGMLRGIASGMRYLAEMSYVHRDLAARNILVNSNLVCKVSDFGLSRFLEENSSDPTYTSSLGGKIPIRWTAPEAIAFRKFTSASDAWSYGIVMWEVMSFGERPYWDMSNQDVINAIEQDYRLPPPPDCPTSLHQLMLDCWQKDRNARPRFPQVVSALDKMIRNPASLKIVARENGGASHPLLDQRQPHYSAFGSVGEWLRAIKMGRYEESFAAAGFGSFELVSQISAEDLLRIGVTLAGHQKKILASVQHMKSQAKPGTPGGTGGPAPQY
Assay: Test System for EphB4 (HTRF kinase assay)
Format: biochemical
Conditions: polyGluAlaTyr substrate, 2 μmol of ATP
Description: A mixture that consists of 20 ng/ml of recombinant EphB4 kinase (related to ProQinase GmbH, Freiburg, Germany), 2.67 μg/ml of polyGluAlaTyr, 2 μmol of ATP, 25 mmol of HEPES (pH 7.3), 5 mmol of MgCl2, 1 mmol of MnCl2, 2 mmol of DTT, 0.1 mmol of NaVO4, 1% (v/v) glycerol, 0.02% NP40, EDTA-free protease inhibitors (Complete Fa. [Company] Roche, 1 tablet in 50 ml) is incubated at 20° C. for 10 minutes. Test substances are dissolved in 100% DMSO and introduced in 0.017× volume before the beginning of the reaction. 60 minutes after the addition of 1.7× volume of a solution of 50 mmol of Hepes, pH 7.0, 0.2% BSA, 0.14 μg/ml of PT66-europium, 3.84 μg/ml of SA-XL665, and 75 mmol of EDTA, the batch is measured in a Discovery HTRF-measuring device of the PerkinElmer Company.

[1] = read-out: IC50 of EphB4 kinase inhibition (stated as upper bound)

An IC50 [1] of less than 10 µM was found for `Nc1n[nH]c2nc(C3CC3)cc(-c3ccc(Cl)c(Cl)c3)c12` [Example 51, 6-Cyclopropyl-4-(3,4-dichlorophenyl)-1H-pyrazolo[3,4-b]pyridin-3-ylamine] in this work.

An IC50 (read-out: IC50 of EphB4 kinase inhibition) of 6.1 µM and an IC50 [1] of less than 10 µM were found for `COc1cccc(-c2cc(C(C)(C)C)nc3[nH]nc(N)c23)c1` [Example 6, 6-tert-Butyl-4-(3-methoxyphenyl)-1H-pyrazolo[3,4b]pyridin-3-ylamine] in this work.

An IC50 [1] of less than 10 µM was found for `CC(C)Oc1cc(O)cc(-c2cc(C(C)(C)C)nc3[nH]nc(N)c23)c1` [Example 40] in this work.

An IC50 [1] of less than 10 µM was found for `COc1cc(O)cc(-c2cc(-c3ccncc3)nc3[nH]nc(N)c23)c1` [Example 33, 3-(3-Amino-6-pyridin-4-yl-1H-pyrazolo[3,4-b]pyridin-4-yl)-5-methoxyphenol] in this work.

An IC50 [1] of less than 10 µM was found for `COc1cc(OC)cc(-c2cc(C(C)(C)C)nc3[nH]nc(N)c23)c1` [Example 39, 6-tert-Butyl-4-(3,5-dimethoxyphenyl)-1H-pyrazolo[3,4-b]pyridin-3-ylamine] in this work.

An IC50 [1] of less than 10 µM was found for `Cc1ccc(-c2cc(C3CCC(N4CCNCC4)CC3)nc3[nH]nc(N)c23)cc1` (centres unmarked) [Example 14, 6-(4-piperazin-1-yl-cyclohexyl)-4-p-tolyl-1H-pyrazolo[3,4b]pyridin-3-ylamine] in this work.

An IC50 [1] of less than 10 µM was found for `CC(C)(C)c1cc(-c2cc(O)ccc2[N+](=O)[O-])c2c(N)n[nH]c2n1` [Example 41, 3-(3-Amino-6-tert-butyl-1H-pyrazolo[3,4b]pyridin-4-yl)-4-nitro-phenol] in this work.

An IC50 [1] of less than 10 µM was found for `Cc1ccc(-c2cc(C3CCC(N4CCCCC4)CC3)nc3[nH]nc(N)c23)cc1` (centres unmarked) [Example 16, 6-(4-Piperidin-1-yl-cyclohexyl)-4-p-tolyl-1H-pyrazolo[3,4b]pyridin-3-ylamine] in this work.

An IC50 [1] of less than 10 µM was found for `Cc1ccc(O)cc1-c1cc(-c2ccncc2)nc2[nH]nc(N)c12` [Example 35, 3-(3-Amino-6-pyridin-4-yl-1H-pyrazolo[3,4-b]pyridin-4-yl)-4-methyl-phenol] in this work.

An IC50 [1] of less than 10 µM was found for `Cc1ccc(-c2cc(C3CCC(=O)CC3)nc3[nH]nc(N)c23)cc1` [Example 12, 4-(3-Amino-4-p-tolyl-1H-pyrazolo[3,4b]pyridin-6-yl)-cyclohexanone] in this work.

Reference: patent US7977325B2, “3-amino-pyrazolo[3,4b]pyridines as inhibitors of protein tyrosine kinases, their production and use as pharmaceutical agents” (Bayer Schering Pharma AG, priority 2004, dated 2011)
